Laboratory results reported in publication PMC4965148 (PLoS ONE, 2016).
Like-named read-outs stand apart in the source and are kept apart here.

Legend:
[1] = Plasma and brain concentrations after dosing; type: in vivo, rat; settings: rat; for Kp at 30 min / concentration at 30 min: sc; for concentration at 150 min / concentration at 30 min: plasma
Protocol: At specified time points after dosing, the forebrain (for occupancy), the remaining hindbrain (for brain drug exposure) and plasma were collected, frozen in chilled isopentane and stored at -80°C until assayed.
In brief, 50 μL of the plasma sample was extracted by protein precipitation with 150 μL acetonitrile containing an internal standard and 5 μL of supernatant injected into the LC-MS/MS system. Analytes were separated by reversed phase chromatography and detection of each analyte was achieved through selected reaction monitoring mode of mass spectrometry.

Acetylcholinesterase = Acetylcholinesterase (Electrophorus electricus, UniProt O42275); assay: Selectivity panel, enzyme; type: biochemical; settings: Eel
Chain of Acetylcholinesterase (O42275 24-633): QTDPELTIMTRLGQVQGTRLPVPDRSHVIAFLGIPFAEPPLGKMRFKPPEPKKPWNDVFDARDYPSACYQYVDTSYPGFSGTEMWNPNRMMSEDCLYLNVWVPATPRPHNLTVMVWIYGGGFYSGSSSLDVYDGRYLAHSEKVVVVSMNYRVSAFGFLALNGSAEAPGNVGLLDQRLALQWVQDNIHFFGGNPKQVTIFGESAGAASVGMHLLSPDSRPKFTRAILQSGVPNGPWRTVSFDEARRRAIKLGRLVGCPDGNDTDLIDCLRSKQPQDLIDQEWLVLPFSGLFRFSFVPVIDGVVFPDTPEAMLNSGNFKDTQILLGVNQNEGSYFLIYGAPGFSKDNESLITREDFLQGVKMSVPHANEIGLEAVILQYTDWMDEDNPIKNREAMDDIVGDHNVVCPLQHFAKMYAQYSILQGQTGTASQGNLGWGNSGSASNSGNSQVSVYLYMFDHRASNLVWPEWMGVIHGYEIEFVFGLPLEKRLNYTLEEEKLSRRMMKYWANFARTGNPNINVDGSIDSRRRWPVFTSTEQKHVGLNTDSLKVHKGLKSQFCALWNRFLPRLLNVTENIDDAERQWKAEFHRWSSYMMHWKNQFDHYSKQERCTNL

CB1 = CB1 (Homo sapiens, UniProt P21554); assay: Selectivity panel, binding; settings: read-out: % inhibition @ 10 µM
Chain of CB1 (P21554 whole entry): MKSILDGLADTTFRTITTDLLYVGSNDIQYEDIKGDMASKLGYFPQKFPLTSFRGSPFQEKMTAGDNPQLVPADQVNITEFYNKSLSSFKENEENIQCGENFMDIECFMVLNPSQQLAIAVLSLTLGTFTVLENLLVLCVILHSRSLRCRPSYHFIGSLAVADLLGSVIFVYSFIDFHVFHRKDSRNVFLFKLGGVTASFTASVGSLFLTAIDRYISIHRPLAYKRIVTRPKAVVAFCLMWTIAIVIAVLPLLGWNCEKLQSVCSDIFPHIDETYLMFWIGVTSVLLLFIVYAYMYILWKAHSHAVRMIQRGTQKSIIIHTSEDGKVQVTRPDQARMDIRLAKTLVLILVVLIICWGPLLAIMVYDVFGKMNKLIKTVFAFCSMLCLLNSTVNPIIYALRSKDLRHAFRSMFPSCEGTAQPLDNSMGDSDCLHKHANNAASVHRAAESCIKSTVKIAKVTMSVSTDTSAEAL

Dopamine D2 = Dopamine D2 (Homo sapiens, UniProt P14416); assay: Selectivity panel, binding
Chain of Dopamine D2 (P14416 whole entry): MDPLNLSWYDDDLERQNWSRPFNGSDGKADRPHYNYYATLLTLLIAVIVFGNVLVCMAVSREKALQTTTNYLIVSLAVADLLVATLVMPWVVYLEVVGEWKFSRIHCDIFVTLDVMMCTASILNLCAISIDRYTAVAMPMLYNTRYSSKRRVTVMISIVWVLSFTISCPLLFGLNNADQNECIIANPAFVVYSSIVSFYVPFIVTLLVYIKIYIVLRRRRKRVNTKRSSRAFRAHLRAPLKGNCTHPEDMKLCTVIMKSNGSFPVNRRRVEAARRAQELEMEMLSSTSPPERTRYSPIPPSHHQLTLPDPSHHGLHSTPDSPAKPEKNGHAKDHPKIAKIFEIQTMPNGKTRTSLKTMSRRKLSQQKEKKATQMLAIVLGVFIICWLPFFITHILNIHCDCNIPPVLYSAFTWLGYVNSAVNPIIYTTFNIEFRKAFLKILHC

GABA-A α1β2γ2 = GABA-A α1β2γ2 (Homo sapiens, UniProt P14867+P18507+P47870); assay: Selectivity panel, functional; type: cell-based
Chain of GABA-A α1β2γ2 (P14867 28-456): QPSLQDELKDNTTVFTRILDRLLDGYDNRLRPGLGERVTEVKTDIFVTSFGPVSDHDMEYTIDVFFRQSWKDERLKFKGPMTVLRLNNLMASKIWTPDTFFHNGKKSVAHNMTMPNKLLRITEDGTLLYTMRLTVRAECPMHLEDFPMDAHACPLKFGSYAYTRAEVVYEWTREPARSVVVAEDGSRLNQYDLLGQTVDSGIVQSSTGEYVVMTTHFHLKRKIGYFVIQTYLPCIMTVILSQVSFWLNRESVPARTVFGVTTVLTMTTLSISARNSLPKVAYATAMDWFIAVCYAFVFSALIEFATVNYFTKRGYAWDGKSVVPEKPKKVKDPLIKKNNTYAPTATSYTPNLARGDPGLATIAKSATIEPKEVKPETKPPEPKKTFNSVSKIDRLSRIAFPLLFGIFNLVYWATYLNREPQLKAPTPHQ
Chain of GABA-A α1β2γ2 (P47870 25-512 limits assumed): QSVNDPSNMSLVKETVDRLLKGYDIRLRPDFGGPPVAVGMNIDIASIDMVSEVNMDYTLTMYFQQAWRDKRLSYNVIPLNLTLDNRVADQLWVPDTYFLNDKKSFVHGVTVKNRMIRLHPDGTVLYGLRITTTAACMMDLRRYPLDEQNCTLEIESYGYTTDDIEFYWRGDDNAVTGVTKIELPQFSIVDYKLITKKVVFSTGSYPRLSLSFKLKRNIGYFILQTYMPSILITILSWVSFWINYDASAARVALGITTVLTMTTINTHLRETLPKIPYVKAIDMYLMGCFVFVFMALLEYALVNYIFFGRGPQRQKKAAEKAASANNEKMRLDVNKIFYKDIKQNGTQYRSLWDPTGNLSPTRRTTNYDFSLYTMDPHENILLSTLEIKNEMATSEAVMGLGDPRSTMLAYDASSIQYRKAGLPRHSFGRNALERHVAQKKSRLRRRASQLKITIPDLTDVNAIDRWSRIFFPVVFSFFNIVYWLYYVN
Chain of GABA-A α1β2γ2 (P18507 40-475): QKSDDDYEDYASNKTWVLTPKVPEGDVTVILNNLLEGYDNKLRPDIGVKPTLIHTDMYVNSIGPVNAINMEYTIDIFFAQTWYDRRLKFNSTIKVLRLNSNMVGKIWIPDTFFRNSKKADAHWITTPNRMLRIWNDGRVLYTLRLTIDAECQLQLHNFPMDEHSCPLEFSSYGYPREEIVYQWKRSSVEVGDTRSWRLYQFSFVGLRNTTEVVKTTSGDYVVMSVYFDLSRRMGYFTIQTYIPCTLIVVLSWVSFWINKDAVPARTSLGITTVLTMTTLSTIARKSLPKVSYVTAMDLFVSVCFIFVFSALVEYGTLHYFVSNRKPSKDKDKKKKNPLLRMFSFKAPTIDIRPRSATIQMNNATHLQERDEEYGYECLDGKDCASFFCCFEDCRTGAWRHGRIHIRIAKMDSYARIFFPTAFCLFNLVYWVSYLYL

Histamine H2 = Histamine H2 (Homo sapiens, UniProt P25021); assay: Selectivity panel, binding
Chain of Histamine H2 (P25021 whole entry): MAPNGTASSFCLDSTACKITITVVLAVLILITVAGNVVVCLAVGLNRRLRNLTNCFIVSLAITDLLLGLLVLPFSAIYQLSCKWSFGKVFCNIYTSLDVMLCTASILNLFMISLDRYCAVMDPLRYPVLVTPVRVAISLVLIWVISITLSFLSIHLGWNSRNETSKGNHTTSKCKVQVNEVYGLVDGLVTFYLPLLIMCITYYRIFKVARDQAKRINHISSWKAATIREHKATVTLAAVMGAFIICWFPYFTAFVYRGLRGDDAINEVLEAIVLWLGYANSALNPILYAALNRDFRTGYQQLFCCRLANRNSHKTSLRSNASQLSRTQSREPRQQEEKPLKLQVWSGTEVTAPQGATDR

Muscarinic M4 = Muscarinic M4 (Homo sapiens, UniProt P08173); assay: Selectivity panel, binding; settings: read-out: % inhibition @ 10 µM
Chain of Muscarinic M4 (P08173 whole entry): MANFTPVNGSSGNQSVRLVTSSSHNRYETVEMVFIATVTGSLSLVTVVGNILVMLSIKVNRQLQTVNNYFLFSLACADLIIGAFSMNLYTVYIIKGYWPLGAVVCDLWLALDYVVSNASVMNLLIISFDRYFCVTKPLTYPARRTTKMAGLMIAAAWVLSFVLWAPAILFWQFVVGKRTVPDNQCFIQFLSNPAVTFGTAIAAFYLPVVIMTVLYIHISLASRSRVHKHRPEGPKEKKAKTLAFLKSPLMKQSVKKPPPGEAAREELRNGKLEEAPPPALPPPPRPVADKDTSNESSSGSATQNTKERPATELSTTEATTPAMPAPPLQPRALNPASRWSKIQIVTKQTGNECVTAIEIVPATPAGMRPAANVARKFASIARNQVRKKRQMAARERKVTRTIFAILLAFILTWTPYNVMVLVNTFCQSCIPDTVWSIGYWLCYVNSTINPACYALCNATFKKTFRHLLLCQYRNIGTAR

Opiate Mu = Opiate Mu (Homo sapiens, UniProt P35372); assay: Selectivity panel, binding
Chain of Opiate Mu (P35372 whole entry): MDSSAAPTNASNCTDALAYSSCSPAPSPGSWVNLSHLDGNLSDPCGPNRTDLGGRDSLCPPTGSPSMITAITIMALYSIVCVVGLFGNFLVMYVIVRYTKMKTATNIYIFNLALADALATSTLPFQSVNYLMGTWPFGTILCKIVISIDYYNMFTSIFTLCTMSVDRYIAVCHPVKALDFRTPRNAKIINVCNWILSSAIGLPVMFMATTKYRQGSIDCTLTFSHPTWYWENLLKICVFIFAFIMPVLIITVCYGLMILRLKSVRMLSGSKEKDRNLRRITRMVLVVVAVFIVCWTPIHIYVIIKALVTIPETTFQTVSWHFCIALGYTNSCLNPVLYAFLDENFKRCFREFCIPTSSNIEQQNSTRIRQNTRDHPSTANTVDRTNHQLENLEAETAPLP

5-HT2B = 5-HT2B (Homo sapiens, UniProt P41595); assay: Selectivity panel, functional; type: cell-based
Chain of 5-HT2B (P41595 whole entry): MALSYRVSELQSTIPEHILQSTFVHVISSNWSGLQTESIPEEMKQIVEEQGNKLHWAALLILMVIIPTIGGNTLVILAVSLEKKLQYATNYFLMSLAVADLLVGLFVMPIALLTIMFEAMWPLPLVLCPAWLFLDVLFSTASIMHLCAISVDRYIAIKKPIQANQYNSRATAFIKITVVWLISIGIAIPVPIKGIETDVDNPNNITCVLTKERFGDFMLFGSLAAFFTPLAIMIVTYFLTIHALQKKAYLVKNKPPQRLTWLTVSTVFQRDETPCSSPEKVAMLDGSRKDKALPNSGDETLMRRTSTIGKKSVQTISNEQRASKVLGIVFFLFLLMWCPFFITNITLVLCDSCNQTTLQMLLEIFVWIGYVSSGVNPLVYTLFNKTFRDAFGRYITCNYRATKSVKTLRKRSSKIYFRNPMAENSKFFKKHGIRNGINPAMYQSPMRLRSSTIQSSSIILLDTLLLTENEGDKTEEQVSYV

## c1cn(-c2cc(NC3=NC[C@@]4(CN5CCC4CC5)O3)ncn2)cn1 [BMS-933043, (2R)-N-(6-(1H-imidazol-1-yl)-4-pyrimidinyl)-4'H-spiro[4-azabicyclo[2.2.2]octane-2,5'-[1,3]oxazol]-2'-amine]
[1]; brain/plasma, oral, 30 mg/kg, Rat MK-801 Set Shift (3-30 mg/kg study), 30 mg/kg po, 150 min
  Kp at 150 min: 0.31
[1]; brain/plasma, other: subcutaneous or oral (pooled over all rat studies), rats
  Kp: 0.28
[1]; brain/plasma, 0.03 mg/kg, Rat MMN, 0.03 mg/kg sc, 30 min
  Kp at 30 min: 0.57
[1]; brain/plasma, 0.3 mg/kg, Rat MMN, 0.30 mg/kg sc, 30 min
  Kp at 30 min: 0.17
[1]; brain/plasma, 0.3 mg/kg, Rat N40 Gating, 0.30 mg/kg sc, 30 min
  Kp at 30 min: 0.26
[1]; brain/plasma, 0.56 mg/kg, Rat N40 Gating, 0.56 mg/kg sc, 30 min
  Kp at 30 min: 0.3
[1]; brain/plasma, 1 mg/kg, Rat MMN, 1 mg/kg sc, 30 min
  Kp at 30 min: 0.19
[1]; brain/plasma, 1 mg/kg, Rat N40 Gating, 1 mg/kg sc, 30 min
  Kp at 30 min: 0.33
[1]; brain/plasma, 3 mg/kg, Rat MMN, 3 mg/kg sc, 30 min
  Kp at 30 min: 0.19
[1]; brain/plasma, 3 mg/kg, Rat N40 Gating, 3 mg/kg sc, 30 min
  Kp at 30 min: 0.27
[1]; oral, 0.3 mg/kg, Rat MK-801 Set Shift (0.3-3 mg/kg study), 0.30 mg/kg po, 150 min, read-out: Plasma Mean ± SD
  concentration at 150 min: 5.7 ± 0.9 nM
[1]; oral, 1 mg/kg, Rat MK-801 Set Shift (0.3-3 mg/kg study), 1 mg/kg po, 150 min, read-out: Plasma Mean ± SD
  concentration at 150 min: 50 ± 7.4 nM
[1]; oral, 3 mg/kg, Rat MK-801 Set Shift (0.3-3 mg/kg study), 3 mg/kg po, 150 min, read-out: Plasma Mean ± SD
  concentration at 150 min: 410 ± 97 nM
[1]; oral, 3 mg/kg, Rat MK-801 Set Shift (3-30 mg/kg study), 3 mg/kg po, 150 min, read-out: Plasma Mean ± SD
  concentration at 150 min: 452 ± 60 nM
[1]; oral, 10 mg/kg, Rat MK-801 Set Shift (3-30 mg/kg study), 10 mg/kg po, 150 min, read-out: Plasma Mean ± SD
  concentration at 150 min: 1860 nM
[1]; oral, 30 mg/kg, Rat MK-801 Set Shift (3-30 mg/kg study), 30 mg/kg po, 150 min, read-out: Plasma Mean ± SD
  concentration at 150 min: 7260 nM
[1]; po, 1 mg/kg, Rat Neonatal PCP ID/ED, 1 mg/kg po, 150 min, read-out: Plasma Mean ± SD
  concentration at 150 min: 21 ± 9 nM
[1]; po, 3 mg/kg, Rat Neonatal PCP ID/ED, 3 mg/kg po, 150 min, read-out: Plasma Mean ± SD
  concentration at 150 min: 225 ± 50 nM
[1]; 0.01 mg/kg, Rat MMN, 0.01 mg/kg sc, 30 min, read-out: Plasma Mean ± SD
  concentration at 30 min: 2.4 ± 0.1 nM
[1]; 0.03 mg/kg, Rat MMN, 0.03 mg/kg sc, 30 min, read-out: Plasma Mean ± SD
  concentration at 30 min: 23 ± 29 nM
[1]; 0.1 mg/kg, Rat MMN, 0.10 mg/kg sc, 30 min, read-out: Plasma Mean ± SD
  concentration at 30 min: 24 ± 0.6 nM
[1]; 0.3 mg/kg, Rat MMN, 0.30 mg/kg sc, 30 min, read-out: Plasma Mean ± SD
  concentration at 30 min: 75 ± 6 nM
[1]; 0.3 mg/kg, Rat N40 Gating, 0.30 mg/kg sc, 30 min, read-out: Plasma Mean ± SD
  concentration at 30 min: 81 ± 8 nM
[1]; 0.56 mg/kg, Rat N40 Gating, 0.56 mg/kg sc, 30 min, read-out: Plasma Mean ± SD
  concentration at 30 min: 146 ± 12 nM
[1]; 1 mg/kg, Rat MMN, 1 mg/kg sc, 30 min, read-out: Plasma Mean ± SD
  concentration at 30 min: 398 ± 139 nM
[1]; 1 mg/kg, Rat N40 Gating, 1 mg/kg sc, 30 min, read-out: Plasma Mean ± SD
  concentration at 30 min: 295 ± 27 nM
[1]; 3 mg/kg, Rat MMN, 3 mg/kg sc, 30 min, read-out: Plasma Mean ± SD
  concentration at 30 min: 1970 nM
[1]; 3 mg/kg, Rat N40 Gating, 3 mg/kg sc, 30 min, read-out: Plasma Mean ± SD
  concentration at 30 min: 1360 nM
[1]; subcutaneous, 10 mg/kg, N40 gating, read-out: average plasma concentration at dose with loss of efficacy
  concentration at 30 min: 3310 nM
Acetylcholinesterase
  IC50: > 60 µM
CB1
  inhibition at 10 µM: -5%
Dopamine D2
  IC50: > 30 µM
GABA-A α1β2γ2
  IC50: > 30 µM
Histamine H2
  IC50: > 30 µM
Muscarinic M4
  inhibition at 10 µM: 10%
Opiate Mu
  IC50: > 30 µM
5-HT2B
  EC50: > 10 µM
